Assay results taken from patent US11666562B2, “Ilaprazole for inhibiting the release of enveloped viruses from cells” (Northwestern University, priority 2020, dated 2023).
“Also recorded” adds a separate entry of the source. Like-named read-outs stand apart in the source and are kept apart here.

Assays:
HIV-1 = assay: Release of HIV-1 from transfected 293T cells, p24 in media; format: cell-based; details: 293T cells transfected with pR9-HIV-1Ba-L, read-out: EC50, inhibition of HIV-1 release
Method: Effect of Ilaprazole on release of HIV-1 in vitro. To establish the broad-spectrum potential of ilaprazole, we tested whether ilaprazole would inhibit the release of HIV-1 from 293T cells. To this end, cells were transfected with pR9-HIV-1Ba-L plasmid and release of virus into the media fraction was detected by monitoring the capsid (CA) protein (p24) via enzyme linked immunosorbent assay analysis. The drug was tested at concentrations between 0 and 40 μM and the effect of the drug on release of virus assessed (Table 4, shown in FIG. 8, column 2). Ilaprazole was effective at inhibiting the release of HIV-1 from cells with a calculated EC50 of 1 μM or less as described in Materials and Methods.
HIV-1 transfection of 293T cells. 293T cells (American Type Culture Collection) were grown in a 24-well Clear Flat Bottom TC-treated Multiwell Cell Culture Plate using Dulbecco's modified Eagle's medium (Cellgro) containing fetal bovine serum (10%), 100 U/ml penicillin, 100 μg/ml streptomycin, and 292 μg/ml 1-glutamine (Cellgro). […] Virus released from cells was quantified by media-associated p24 determined using fluorescently tagged CA targeting antibody (PerkinElmer) and equivalent amounts of p24 as standards.
Drug potency and cell toxicity. EC50 calculations were determined by using AAT Bioquest's EC50 calculator. […]

ENO1 = ENO1 (Homo sapiens, UniProt P06733); assay: FTS assay against unrelated protein ENO1; format: binding
Text: FIG. 1. Thermal shift data of Tsg101 by lead compound Tenatoprazole (N16). […] (B) Thermal shift data of three human proteins, DHPH, ENO1, and MEK4 not related to Tsg101 by lead compound tenatoprazole. […] (C) The addition of DTT abolishes the Tm shift in the FTS assay, consistent with prazole compounds forming a disulfide bond to Tsg101. Rabe: Rabeprazole, Ila: Ilaprazole, Tenato: tenatoprazole, Panto: pantoprazole, ref: reference.
This specific binding is consistent with a previous NMR structure in which tenatoprazole forms a covalent disulfide bond to Cys73 in the UEV domain of the protein (5). This disulfide bond formation can be prevented by including the reducing agent DTT in the assay (FIG. 1C). The addition of DTT abolished the Tsg101-UEV Tm shift caused by the prazoles. […]
Fluorescence thermal shift (FTS) screening to identify small molecule binding to Tsg101-UEV. […] Discovery of small molecule binding to target protein utilizes the observation that ligand binding affects protein thermal stability, and therefore can be detected through a shift in the protein's thermal denaturation (melting) temperature (Tm). […] A fluorescence dye Sypro-Orange (Invitrogen) was used for assay detection. The dye is excited at 473 nm and has a fluorescence emission at 610 nm. […] Fluorescence was detected on a real-time PCR machine CFX384 (Bio-Rad Laboratories).

Chain of ENO1 (P06733 whole entry): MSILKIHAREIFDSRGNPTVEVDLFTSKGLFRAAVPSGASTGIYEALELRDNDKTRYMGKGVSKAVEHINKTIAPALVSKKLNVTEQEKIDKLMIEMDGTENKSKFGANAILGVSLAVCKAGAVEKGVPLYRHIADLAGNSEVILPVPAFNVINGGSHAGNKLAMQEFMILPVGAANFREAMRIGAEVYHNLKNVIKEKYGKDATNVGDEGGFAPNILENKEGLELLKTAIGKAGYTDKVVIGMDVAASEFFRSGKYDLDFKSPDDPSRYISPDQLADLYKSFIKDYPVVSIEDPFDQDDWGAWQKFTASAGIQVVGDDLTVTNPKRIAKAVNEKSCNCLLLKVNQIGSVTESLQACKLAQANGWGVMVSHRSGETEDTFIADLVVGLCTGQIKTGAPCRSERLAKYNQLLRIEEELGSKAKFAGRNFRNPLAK

COc1ccnc(C[S+]([O-])c2nc3ccc(-n4cccc4)cc3[nH]2)c1C (stereo not drawn) [Ilaprazole, 2-[(4-methoxy-3-methylpyridin-2-yl)methylsulfinyl]-6-pyrrol-1-yl-1H-benzimidazole]
EC50 (HIV-1): ≤ 1000 nM
EC50 (HIV-1; Human immunodeficiency virus 1, HEK-293T): 800 to 1200 nM

COc1ccc2[nH]c([S+]([O-])Cc3ncc(C)c(OC)c3C)nc2n1 (stereo not drawn) [Tenatoprazole]
Effect on thermal stability (Tm shift) of ENO1 (ENO1): negligible; also recorded: did not observe a Tm shift
